Reference: ChEMBL document CHEMBL4229518, “New β-lactam - Tetramic acid hybrids show promising antibacterial activities” (Bioorg Med Chem Lett, 2018)
In brackets after ≈: the same amount, converted by molar mass.

Assays:
Type in all cases: functional
Enterococcus faecalis = assay: Antimicrobial activity against Enterococcus faecalis ATCC 33186 after 18 to 20 hrs by microbroth dilution method
Staphylococcus aureus [1] = assay: Antimicrobial activity against methicillin-susceptible Staphylococcus aureus ATCC 29213 after 18 to 20 hrs by microbroth dilution method
Klebsiella pneumoniae [2] = assay: Antimicrobial activity against Klebsiella pneumoniae ATCC 33495 after 18 to 20 hrs by microbroth dilution method
Escherichia coli [3] = assay: Antimicrobial activity against tolC deficient Escherichia coli JW5503-1 after 18 to 20 hrs by microbroth dilution method
Enterobacter cloacae = assay: Antimicrobial activity against Enterobacter cloacae ATCC 13047 after 18 to 20 hrs by microbroth dilution method; conditions: subsp. cloacae ATCC 13047
Streptococcus pneumoniae = assay: Antimicrobial activity against Streptococcus pneumoniae R6 after 18 to 20 hrs by microbroth dilution method
Staphylococcus aureus [4] = assay: Antimicrobial activity against methicillin-susceptible Staphylococcus aureus NRS70 after 18 to 20 hrs by microbroth dilution method
Proteus mirabilis = assay: Antimicrobial activity against Proteus mirabilis ATCC 25933 after 18 to 20 hrs by microbroth dilution method
Bacillus subtilis = assay: Antimicrobial activity against Bacillus subtilis ATCC 23857 after 18 to 20 hrs by microbroth dilution method
Acinetobacter baumannii = assay: Antimicrobial activity against Acinetobacter baumannii ATCC 19606 after 18 to 20 hrs by microbroth dilution method; conditions: ATCC 19606 = CIP 70.34 = JCM 6841
Streptococcus pyogenes = assay: Antimicrobial activity against Streptococcus pyogenes ATCC 700294 after 18 to 20 hrs by microbroth dilution method; conditions: M1 GAS
Bacillus anthracis = assay: Antimicrobial activity against Bacillus anthracis Sterne 34F2 after 18 to 20 hrs by microbroth dilution method
Pseudomonas aeruginosa = assay: Antimicrobial activity against Pseudomonas aeruginosa PAO1 after 18 to 20 hrs by microbroth dilution method
Bacillus cereus = assay: Antimicrobial activity against Bacillus cereus ATCC 14579 after 18 to 20 hrs by microbroth dilution method
Escherichia coli [5] = assay: Antimicrobial activity against Escherichia coli BW25113 after 18 to 20 hrs by microbroth dilution method
[6] = tested on: Stenotrophomonas maltophilia; assay: Antimicrobial activity against Stenotrophomonas maltophilia ATCC 700475 after 18 to 20 hrs by microbroth dilution method
Klebsiella pneumoniae [7] = assay: Antimicrobial activity against Klebsiella pneumoniae isolate SJ 3 after 18 to 20 hrs by microbroth dilution method
Klebsiella pneumoniae [8] = assay: Antimicrobial activity against Klebsiella pneumoniae isolate SJ 2 after 18 to 20 hrs by microbroth dilution method
Escherichia coli [9] = assay: Antimicrobial activity against Escherichia coli isolate SJ 4 after 18 to 20 hrs by microbroth dilution method
Escherichia coli [10] = assay: Antimicrobial activity against Escherichia coli isolate SJ 3 after 18 to 20 hrs by microbroth dilution method
Escherichia coli [11] = assay: Antimicrobial activity against Escherichia coli isolate SJ 1 after 18 to 20 hrs by microbroth dilution method
Escherichia coli [12] = assay: Antimicrobial activity against Escherichia coli isolate SJ 2 after 18 to 20 hrs by microbroth dilution method
Escherichia coli [13] = assay: Antimicrobial activity against Escherichia coli ATCC 25922 after 18 to 20 hrs by microbroth dilution method
Escherichia coli [14] = assay: Antimicrobial activity against Escherichia coli isolate SJ 6 after 18 to 20 hrs by microbroth dilution method
Klebsiella pneumoniae [15] = assay: Antimicrobial activity against Klebsiella pneumoniae isolate SJ 4 after 18 to 20 hrs by microbroth dilution method
Klebsiella pneumoniae [16] = assay: Antimicrobial activity against Klebsiella pneumoniae isolate SJ 1 after 18 to 20 hrs by microbroth dilution method
Escherichia coli [17] = assay: Antimicrobial activity against Escherichia coli ATCC 35218 expressing TEM-1 beta lactamases after 18 to 20 hrs by microbroth dilution method
Klebsiella pneumoniae [18] = assay: Antimicrobial activity against Klebsiella pneumoniae isolate SJ 5 after 18 to 20 hrs by microbroth dilution method
Escherichia coli [19] = assay: Antimicrobial activity against Escherichia coli isolate SJ 5 after 18 to 20 hrs by microbroth dilution method

## CC(C)CC1NC(=O)C(C(=O)NCCCC(=O)N[C@@H](C(=O)N[C@@H]2C(=O)N3[C@@H]2SC(C)(C)[C@@H]3C(=O)O)c2ccccc2)=C1O (stereo partly drawn)
Enterococcus faecalis
  MIC: 25 µg/mL (≈ 40.6 µM)
Staphylococcus aureus [1]
  MIC: 0.78 µg/mL (≈ 1.27 µM)
Klebsiella pneumoniae [2]
  MIC: > 200 µg/mL
Escherichia coli [3]
  MIC: 12.5 µg/mL (≈ 20.3 µM)
Enterobacter cloacae
  MIC: > 200 µg/mL
Streptococcus pneumoniae
  MIC: < 0.2 µg/mL
Staphylococcus aureus [4]
  MIC: 50 µg/mL (≈ 81.2 µM)
Proteus mirabilis
  MIC: 1.56 µg/mL (≈ 2.53 µM)
Bacillus subtilis
  MIC: 3.13 µg/mL (≈ 5.08 µM)
Acinetobacter baumannii
  MIC: 100 µg/mL (≈ 162 µM)
Streptococcus pyogenes
  MIC: 0.39 µg/mL (≈ 0.633 µM)
Bacillus anthracis
  MIC: 3.13 µg/mL (≈ 5.08 µM)
Pseudomonas aeruginosa
  MIC: 50 µg/mL (≈ 81.2 µM)
Bacillus cereus
  MIC: 25 µg/mL (≈ 40.6 µM)
Escherichia coli [5]
  MIC: 25 µg/mL (≈ 40.6 µM)
[6]
  MIC: 25 µg/mL (≈ 40.6 µM)

## CC(C)CC1NC(=O)C(C(=O)N[C@@H](C(=O)N[C@@H]2C(=O)N3[C@@H]2SC(C)(C)[C@@H]3C(=O)O)c2ccccc2)=C1O (stereo partly drawn)
Enterococcus faecalis
  MIC: 25 µg/mL (≈ 47.1 µM)
Staphylococcus aureus [1]
  MIC: 0.78 µg/mL (≈ 1.47 µM)
Klebsiella pneumoniae [2]
  MIC: 200 µg/mL (≈ 377 µM)
Escherichia coli [3]
  MIC: 6.25 µg/mL (≈ 11.8 µM)
Enterobacter cloacae
  MIC: > 200 µg/mL
Streptococcus pneumoniae
  MIC: 0.39 µg/mL (≈ 0.735 µM)
Staphylococcus aureus [4]
  MIC: 25 µg/mL (≈ 47.1 µM)
Proteus mirabilis
  MIC: 12.5 µg/mL (≈ 23.6 µM)
Bacillus subtilis
  MIC: 3.13 µg/mL (≈ 5.9 µM)
Acinetobacter baumannii
  MIC: 50 µg/mL (≈ 94.2 µM)
Streptococcus pyogenes
  MIC: 0.39 µg/mL (≈ 0.735 µM)
Bacillus anthracis
  MIC: 3.13 µg/mL (≈ 5.9 µM)
Pseudomonas aeruginosa
  MIC: 12.5 µg/mL (≈ 23.6 µM)
Bacillus cereus
  MIC: 12.5 µg/mL (≈ 23.6 µM)
Escherichia coli [5]
  MIC: 50 µg/mL (≈ 94.2 µM)
[6]
  MIC: 6.25 µg/mL (≈ 11.8 µM)

## N[C@@H](C(=O)N[C@@H]1C(=O)N2C(C(=O)O)=C(Cl)CS[C@H]12)c1ccccc1 [CEFACLOR ANHYDROUS]
Enterococcus faecalis
  MIC: 25 µg/mL (≈ 68 µM)
Klebsiella pneumoniae [7]
  MIC: 1.56 µg/mL (≈ 4.24 µM)
Staphylococcus aureus [1]
  MIC: 1.56 µg/mL (≈ 4.24 µM)
Klebsiella pneumoniae [2]
  MIC: 1.56 µg/mL (≈ 4.24 µM)
Klebsiella pneumoniae [8]
  MIC: 1.56 µg/mL (≈ 4.24 µM)
Escherichia coli [9]
  MIC: > 200 µg/mL
Escherichia coli [10]
  MIC: 12.5 µg/mL (≈ 34 µM)
Escherichia coli [3]
  MIC: 6.25 µg/mL (≈ 17 µM)
Enterobacter cloacae
  MIC: > 200 µg/mL
Escherichia coli [11]
  MIC: 50 µg/mL (≈ 136 µM)
Escherichia coli [12]
  MIC: 200 µg/mL (≈ 544 µM)
Streptococcus pneumoniae
  MIC: 0.78 µg/mL (≈ 2.12 µM)
Staphylococcus aureus [4]
  MIC: 100 µg/mL (≈ 272 µM)
Escherichia coli [13]
  MIC: 12.5 µg/mL (≈ 34 µM)
Proteus mirabilis
  MIC: 3.13 µg/mL (≈ 8.51 µM)
Bacillus subtilis
  MIC: < 0.2 µg/mL
Escherichia coli [14]
  MIC: > 200 µg/mL
Acinetobacter baumannii
  MIC: 200 µg/mL (≈ 544 µM)
Klebsiella pneumoniae [15]
  MIC: 1.56 µg/mL (≈ 4.24 µM)
Streptococcus pyogenes
  MIC: 0.39 µg/mL (≈ 1.06 µM)
Bacillus anthracis
  MIC: 0.39 µg/mL (≈ 1.06 µM)
Pseudomonas aeruginosa
  MIC: > 200 µg/mL
Klebsiella pneumoniae [16]
  MIC: 200 µg/mL (≈ 544 µM)
Escherichia coli [17]
  MIC: 50 µg/mL (≈ 136 µM)
Bacillus cereus
  MIC: > 200 µg/mL
Klebsiella pneumoniae [18]
  MIC: > 200 µg/mL
Escherichia coli [19]
  MIC: 50 µg/mL (≈ 136 µM)
Escherichia coli [5]
  MIC: 6.25 µg/mL (≈ 17 µM)
[6]
  MIC: > 200 µg/mL

## CC1=C(C(=O)O)N2C(=O)[C@@H](NC(=O)[C@H](NC(=O)CCNC(=O)C3=C(O)C(CC(C)C)NC3=O)c3ccccc3)[C@H]2SC1 (stereo partly drawn)
Enterococcus faecalis
  MIC: > 200 µg/mL
Staphylococcus aureus [1]
  MIC: 3.13 µg/mL (≈ 5.22 µM)
Klebsiella pneumoniae [2]
  MIC: 200 µg/mL (≈ 334 µM)
Escherichia coli [3]
  MIC: 200 µg/mL (≈ 334 µM)
Enterobacter cloacae
  MIC: > 200 µg/mL
Streptococcus pneumoniae
  MIC: 12.5 µg/mL (≈ 20.8 µM)
Staphylococcus aureus [4]
  MIC: 50 µg/mL (≈ 83.4 µM)
Proteus mirabilis
  MIC: 50 µg/mL (≈ 83.4 µM)
Bacillus subtilis
  MIC: 6.25 µg/mL (≈ 10.4 µM)
Acinetobacter baumannii
  MIC: > 200 µg/mL
Streptococcus pyogenes
  MIC: 12.5 µg/mL (≈ 20.8 µM)
Bacillus anthracis
  MIC: 100 µg/mL (≈ 167 µM)
Pseudomonas aeruginosa
  MIC: > 200 µg/mL
Bacillus cereus
  MIC: > 200 µg/mL
Escherichia coli [5]
  MIC: 200 µg/mL (≈ 334 µM)
[6]
  MIC: > 200 µg/mL

## CC(C)CC1NC(=O)C(C(=O)NCCCCCC(=O)N[C@@H](C(=O)N[C@@H]2C(=O)N3[C@@H]2SC(C)(C)[C@@H]3C(=O)O)c2ccccc2)=C1O (stereo partly drawn)
Enterococcus faecalis
  MIC: 25 µg/mL (≈ 38.8 µM)
Staphylococcus aureus [1]
  MIC: 0.78 µg/mL (≈ 1.21 µM)
Klebsiella pneumoniae [2]
  MIC: > 200 µg/mL
Escherichia coli [3]
  MIC: 12.5 µg/mL (≈ 19.4 µM)
Enterobacter cloacae
  MIC: > 200 µg/mL
Streptococcus pneumoniae
  MIC: < 0.2 µg/mL
Staphylococcus aureus [4]
  MIC: 50 µg/mL (≈ 77.7 µM)
Proteus mirabilis
  MIC: 6.25 µg/mL (≈ 9.71 µM)
Bacillus subtilis
  MIC: 3.13 µg/mL (≈ 4.86 µM)
Acinetobacter baumannii
  MIC: 100 µg/mL (≈ 155 µM)
Streptococcus pyogenes
  MIC: < 0.2 µg/mL
Bacillus anthracis
  MIC: 3.13 µg/mL (≈ 4.86 µM)
Pseudomonas aeruginosa
  MIC: 50 µg/mL (≈ 77.7 µM)
Bacillus cereus
  MIC: 50 µg/mL (≈ 77.7 µM)
Escherichia coli [5]
  MIC: 50 µg/mL (≈ 77.7 µM)
[6]
  MIC: 25 µg/mL (≈ 38.8 µM)

## CO[C@@]1(NC(=O)C2SC(=C(C(N)=O)C(=O)O)S2)C(=O)N2C(C(=O)O)=C(CSc3nnnn3C)CS[C@@H]21 (stereo partly drawn) [CEFOTETAN]
Klebsiella pneumoniae [7]
  MIC: 0.39 µg/mL (≈ 0.678 µM)
Klebsiella pneumoniae [2]
  MIC: < 0.2 µg/mL
Klebsiella pneumoniae [8]
  MIC: < 0.2 µg/mL
Escherichia coli [9]
  MIC: 1.56 µg/mL (≈ 2.71 µM)
Escherichia coli [10]
  MIC: 0.78 µg/mL (≈ 1.36 µM)
Escherichia coli [3]
  MIC: 1.56 µg/mL (≈ 2.71 µM)
Escherichia coli [11]
  MIC: 0.39 µg/mL (≈ 0.678 µM)
Escherichia coli [12]
  MIC: 1.56 µg/mL (≈ 2.71 µM)
Escherichia coli [13]
  MIC: 1.56 µg/mL (≈ 2.71 µM)
Proteus mirabilis
  MIC: < 0.2 µg/mL
Escherichia coli [14]
  MIC: 25 µg/mL (≈ 43.4 µM)
Acinetobacter baumannii
  MIC: 100 µg/mL (≈ 174 µM)
Klebsiella pneumoniae [15]
  MIC: 0.39 µg/mL (≈ 0.678 µM)
Pseudomonas aeruginosa
  MIC: > 200 µg/mL
Klebsiella pneumoniae [16]
  MIC: < 0.2 µg/mL
Escherichia coli [17]
  MIC: < 0.2 µg/mL
Klebsiella pneumoniae [18]
  MIC: 1.56 µg/mL (≈ 2.71 µM)
Escherichia coli [19]
  MIC: 12.5 µg/mL (≈ 21.7 µM)
Escherichia coli [5]
  MIC: 25 µg/mL (≈ 43.4 µM)

## CC1=C(C(=O)O)N2C(=O)[C@@H](NC(=O)[C@H](NC(=O)C3=C(O)C(CC(C)C)NC3=O)c3ccccc3)[C@H]2SC1 (stereo partly drawn)
Enterococcus faecalis
  MIC: 200 µg/mL (≈ 378 µM)
Staphylococcus aureus [1]
  MIC: 12.5 µg/mL (≈ 23.6 µM)
Klebsiella pneumoniae [2]
  MIC: > 200 µg/mL
Escherichia coli [3]
  MIC: 100 µg/mL (≈ 189 µM)
Enterobacter cloacae
  MIC: > 200 µg/mL
Streptococcus pneumoniae
  MIC: 100 µg/mL (≈ 189 µM)
Staphylococcus aureus [4]
  MIC: 100 µg/mL (≈ 189 µM)
Proteus mirabilis
  MIC: 100 µg/mL (≈ 189 µM)
Bacillus subtilis
  MIC: 25 µg/mL (≈ 47.3 µM)
Acinetobacter baumannii
  MIC: 100 µg/mL (≈ 189 µM)
Streptococcus pyogenes
  MIC: 3.13 µg/mL (≈ 5.92 µM)
Bacillus anthracis
  MIC: 200 µg/mL (≈ 378 µM)
Pseudomonas aeruginosa
  MIC: > 200 µg/mL
Bacillus cereus
  MIC: > 200 µg/mL
Escherichia coli [5]
  MIC: > 200 µg/mL
[6]
  MIC: 100 µg/mL (≈ 189 µM)
